Values joined by “and” are separate entries in the source; they are usually repeats but may differ in a detail not shown here. Equal entries are not always repeated.
Tests used:
hTPC2 = target: T1, hTPC2 (Homo sapiens, UniProt Q8NHX9); test: Whole-endolysosome recordings of ITPC2; assay type: biochemical; conditions: for inactivation of ITPC2, I500ms / I10ms: @-120mV; for time course of LyNa-VA1.2-induced ITPC2: EL
T1 construct: expressed in transfected cells; host or cells: Cos1 and HEK293

hTPC1 = target: T2, hTPC1 (Homo sapiens, UniProt Q9ULQ1); test: Whole-endolysosome recordings of ITPC1; assay type: biochemical
T2 construct: expressed in transfected cells; host or cells: Cos1
Description: It was therefore of interest to explore whether TCAs/LyNa-VAs could also act on TPC1. To investigate this, we used two different voltage paradigms. […] Second, we used a tail current paradigm to measure the amplitude of the peak inward current at −120 mV following prolonged steps to various potentials (Figure 4E).
Figure 4. […] HP = 0 mV. […] Dotted lines in A indicate where the currents were measured. […] Data are presented as Mean ± S.E.M (n = 3 patches). […] (G) Normalized I-V plots of basal voltage-dependent currents in WT TPC1- and TPC1^R540I-transfected cells. […] Figure 4—source data 1. […] Figure 4—figure supplement 1. […] (A) A voltage protocol that elicited ITPC1 tail currents as shown in Figure 4E (from −140 to 100 mV with a ∆V = 20 mV, 1 s with a 10 s inter-step interval). Arrows indicate where tail currents were measured. (B) A voltage protocol that elicited ITPC1 tail currents as shown in C. […] HP = 0 mV. […] (A) Basal whole-endolysosome ITPC1 (left) or ITPC1-R540I (right) was elicited by voltage steps (−140 to +100 mV with ΔV = 20 mV) in the absence of PI(3,5)P2 in TPC1-transfected Cos1 cells ([She et al., 2019]). Tail currents were elicited at −120 mV. (B) The effects of PI(3,5)P2 (0.3 µM) on ITPC1 (left) and ITPC1-R540I (right) step currents. […] A preconditioning voltage (+80 mV, 0.1 s) was applied before voltage steps starting from −140 to 100 mV (0.5 s, ∆V = 20 mV).
(§1) All TPC1 and TPC2 mutants were generated with a site-directed mutagenesis kit (Qiagen) using EGFP- human TPC1 and TPC2 as the templates. All constructs were confirmed by DNA sequencing.
Whole-endolysosome recordings were performed on manually isolated enlarged endolysosomes ([Wang et al., 2012]). In brief, a patch pipette was pressed against a cell and quickly pulled away to slice the cell membrane. Enlarged endolysosomes were released into a dish and identified by monitoring EGFP-TPC1/2 or the mCherry-TPC1/2 fluorescence. After formation of a gigaseal between the patch pipette and the enlarged endolysosome, capacitance transients were compensated. Voltage steps of several hundred mVs with millisecond duration were then applied to break into the vacuolar membrane. The whole-endolysosome configuration was verified by the re-appearance of capacitance transients after break-in.
Data were collected using an Axopatch 200A patch clamp amplifier, Digidata 1440, and pClamp 10.2 software (Axon Instruments). Whole-endolysosome currents were digitized at 10 kHz and filtered at 2 kHz. All experiments were conducted at room temperature (21–23°C), and all recordings were analyzed with pClamp 10.2, and Origin 8.0 (OriginLab, Northampton, MA). The permeability to cations (relative to PNa) was estimated based on following equations ([Lewis, 1979]) and Erev measurement under bi-ionic conditions:(1) PX/PNa=γNa/γX{[Na^+]Luminal/[X^+]Cytoplasmic}{exp([…])} (2) PCa/PNa=γNa/γCa{[Na^+]Cytoplasmic/[4[Ca^2+]Luminal}{exp(ErevF/RT)}{1+exp(ErevF/RT)} where R, T, F, Erev, and γ are, respectively, the gas constant, absolute temperature, Faraday constant, reversal potential, and activity coefficient. The liquid junction potentials were measured and corrected as described ([Neher, 1992]).

[1] = target: T3, surface-expressing mutant TPC2 channel (TPC2^LL/AA) in HEK293 cells (Homo sapiens, UniProt Q8NHX9, L11A/L12A); test: Whole-cell recordings of ITPC2-LL/AA; assay type: cell-based; conditions: for voltage-dependent inactivation of ITPC2, I1s / 0s: @-140mV; for time course of LyNa-VA1.2-induced ITPC2: wc; for current density: whole cell recordings
T3 construct: expressed in transfected cells; host or cells: HEK293
Text: We therefore characterized the responses of TPC2 channels to TCAs in detail using electrophysiological methods. We first performed whole-cell recordings in HEK293 cells that were transfected with surface-expressed TPC2 mutant channels (TPC2-L^11L^12-AA; abbreviated as TPC2^LL/AA hereafter).
as §1
Cells were transfected with Lipofectamine 2000 (Invitrogen). After culture media were refreshed 18–24 hr post-transfection, cells were used for the electrophysiological assays 24–36 hr post-transfection.
All bath solutions were applied via a perfusion system that allowed complete solution exchange within a few seconds. […] Whole-cell currents were digitized at 10 kHz and filtered at 2 kHz.

[2] = lysosome, 200 µM, individual recordings
[3] = whole-endolysosome, 200 µM, mean ± S.E.M
[4] = whole cell, 200 µM, individual recordings
[5] = whole-cell, 200 µM, mean ± S.E.M

T3 sequence (Q8NHX9 whole entry L11A/L12A): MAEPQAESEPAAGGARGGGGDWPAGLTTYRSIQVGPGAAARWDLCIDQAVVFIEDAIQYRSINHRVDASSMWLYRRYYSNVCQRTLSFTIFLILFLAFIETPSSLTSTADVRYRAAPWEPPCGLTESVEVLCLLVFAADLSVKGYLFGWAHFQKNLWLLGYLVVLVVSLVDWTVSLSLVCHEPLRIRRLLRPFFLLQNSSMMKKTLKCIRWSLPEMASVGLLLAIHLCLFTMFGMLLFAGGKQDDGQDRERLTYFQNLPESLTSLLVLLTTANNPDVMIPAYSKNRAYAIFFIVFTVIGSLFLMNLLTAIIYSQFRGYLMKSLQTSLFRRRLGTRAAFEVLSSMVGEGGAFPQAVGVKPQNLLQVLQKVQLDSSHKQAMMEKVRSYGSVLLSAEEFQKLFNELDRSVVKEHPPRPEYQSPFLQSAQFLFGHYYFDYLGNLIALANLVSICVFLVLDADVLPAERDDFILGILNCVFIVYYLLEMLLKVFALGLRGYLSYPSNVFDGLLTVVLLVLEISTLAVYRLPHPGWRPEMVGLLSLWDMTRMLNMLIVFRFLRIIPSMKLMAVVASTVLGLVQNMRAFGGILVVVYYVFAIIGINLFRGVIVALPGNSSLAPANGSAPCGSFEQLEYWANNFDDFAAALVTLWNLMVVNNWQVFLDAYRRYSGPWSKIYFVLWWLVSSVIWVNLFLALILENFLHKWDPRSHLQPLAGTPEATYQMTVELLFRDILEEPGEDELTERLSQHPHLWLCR
T1 sequence (Q8NHX9 whole entry): as the sequence (Q8NHX9 whole entry L11A/L12A) above, with A11L, A12L counted along it

**Q.** Which results are given for `CNCCCN1c2ccccc2CCc2ccccc21` [LyNa-VA1.2, Desipramine]?
**A.** inactivation of ITPC2, I500ms / I10ms (hTPC2; PI(3,5)P2 0.3 µM, LyNa-VA1.2 100 µM, LyNA1 300 µM, individual tests): 0.6243 and 0.7434 and 0.4902 and 0.5999 and 0.6758; inactivation of ITPC2, I500ms / I10ms (hTPC2; mean): 0.6267; time course of LyNa-VA1.2-induced ITPC2 (hTPC2; time 0 s): -0.016; time course of LyNa-VA1.2-induced ITPC2 (hTPC2; time 2 s): -0.01474; time course of LyNa-VA1.2-induced ITPC2 (hTPC2; time 4 s): -0.01598; time course of LyNa-VA1.2-induced ITPC2 (hTPC2; time 6 s): -0.00988; time course of LyNa-VA1.2-induced ITPC2 (hTPC2; time 8 s): -0.00688; time course of LyNa-VA1.2-induced ITPC2 (hTPC2; time 10 s): -0.02054; time course of LyNa-VA1.2-induced ITPC2 (hTPC2; time 12 s): -0.02108; time course of LyNa-VA1.2-induced ITPC2 (hTPC2; time 14 s): -0.1089; time course of LyNa-VA1.2-induced ITPC2 (hTPC2; time 16 s): -0.1984; time course of LyNa-VA1.2-induced ITPC2 (hTPC2; time 18 s): -0.2507; time course of LyNa-VA1.2-induced ITPC2 (hTPC2; time 20 s): -0.3079; time course of LyNa-VA1.2-induced ITPC2 (hTPC2; time 22 s): -0.5611; time course of LyNa-VA1.2-induced ITPC2 (hTPC2; time 24 s): -0.7092; time course of LyNa-VA1.2-induced ITPC2 (hTPC2; time 26 s): -0.8241; time course of LyNa-VA1.2-induced ITPC2 (hTPC2; time 28 s): -0.8579; time course of LyNa-VA1.2-induced ITPC2 (hTPC2; time 30 s): -0.8577; time course of LyNa-VA1.2-induced ITPC2 (hTPC2; time 32 s): -0.9123; time course of LyNa-VA1.2-induced ITPC2 (hTPC2; time 34 s): -1; time course of LyNa-VA1.2-induced ITPC2 (hTPC2; time 36 s): -0.9719; time course of LyNa-VA1.2-induced ITPC2 (hTPC2; time 38 s): -0.9923; time course of LyNa-VA1.2-induced ITPC2 (hTPC2; time 40 s): -0.9868; time course of LyNa-VA1.2-induced ITPC2 (hTPC2; time 42 s): -0.989; Latency of induced ITPC2 (hTPC2; [2]): 6 s and 8 s and 10 s; Time constant (τ) of induced ITPC2 (hTPC2; [2]): 6.38 s and 6 s and 5.4 s; ITPC2 (hTPC2; whole endolysosome recordings with 100 µM of LyNa-VAs at −120 mV): 1120 ± 94 pA; latency of TPC2 activation (hTPC2; [3]): 7 ± 1 s; time constant (τ) of TPC2 activation (hTPC2; [3]): 8 ± 2 s; Dose-dependent activation of TPC1 (normalized ITPC1) (hTPC1; 3 µM, individual patches): 0.01236 and 0.1007 and 0.1129; Dose-dependent activation of TPC1 (normalized ITPC1) (hTPC1; 3 µM, mean): 0.07532; Dose-dependent activation of TPC1 (normalized ITPC1) (hTPC1; 10 µM, individual patches): 0.3905 and 0.6013 and 0.2982; Dose-dependent activation of TPC1 (normalized ITPC1) (hTPC1; 10 µM, mean): 0.43; Dose-dependent activation of TPC1 (normalized ITPC1) (hTPC1; 30 µM, individual patches): 0.9756 and 1 and 0.7567; Dose-dependent activation of TPC1 (normalized ITPC1) (hTPC1; 30 µM, mean): 0.9108; Dose-dependent activation of TPC1 (normalized ITPC1) (hTPC1; 100 µM, individual patches): 1 (2×) and 0.518; Dose-dependent activation of TPC1 (normalized ITPC1) (hTPC1; 100 µM, mean): 0.8393; Dose-dependent activation of TPC1 (normalized ITPC1) (hTPC1; 300 µM, individual patches): 0.9299 and 0.7273; Dose-dependent activation of TPC1 (normalized ITPC1) (hTPC1; 300 µM, mean): 0.8286; EC50 (hTPC1; whole-endolysosome, n = 3 patches, read-out: EC50, activation of TPC1): 10 ± 1 µM; voltage-dependent inactivation of ITPC2, I1s / 0s ([1]; whole-cell, individual recordings): 0.09192 and 0.1098 and 0.1458; voltage-dependent inactivation of ITPC2, I1s / 0s ([1]; whole-cell, mean): 0.1158; activation of whole-cell ITPC2-LL/AA (in words) ([1]; bath application, symmetric Na^+, 100 µM where stated): ITPC2 was evoked; time course of LyNa-VA1.2-induced ITPC2 ([1]; time 0 s): -0.02373; time course of LyNa-VA1.2-induced ITPC2 ([1]; time 2 s): -0.02853; time course of LyNa-VA1.2-induced ITPC2 ([1]; time 4 s): -0.024; time course of LyNa-VA1.2-induced ITPC2 ([1]; time 6 s): -0.02111; time course of LyNa-VA1.2-induced ITPC2 ([1]; time 8 s): -0.02193; time course of LyNa-VA1.2-induced ITPC2 ([1]; time 10 s): -0.01987; time course of LyNa-VA1.2-induced ITPC2 ([1]; time 12 s): -0.0181; time course of LyNa-VA1.2-induced ITPC2 ([1]; time 14 s): -0.01154; time course of LyNa-VA1.2-induced ITPC2 ([1]; time 16 s): -7.79E-04; time course of LyNa-VA1.2-induced ITPC2 ([1]; time 18 s): -0.01449; time course of LyNa-VA1.2-induced ITPC2 ([1]; time 20 s): -0.01685; time course of LyNa-VA1.2-induced ITPC2 ([1]; time 22 s): -0.0503; time course of LyNa-VA1.2-induced ITPC2 ([1]; time 24 s): -0.06829; time course of LyNa-VA1.2-induced ITPC2 ([1]; time 26 s): -0.1356; time course of LyNa-VA1.2-induced ITPC2 ([1]; time 28 s): -0.1797; time course of LyNa-VA1.2-induced ITPC2 ([1]; time 30 s): -0.2005; time course of LyNa-VA1.2-induced ITPC2 ([1]; time 32 s): -0.2805; time course of LyNa-VA1.2-induced ITPC2 ([1]; time 34 s): -0.3854; time course of LyNa-VA1.2-induced ITPC2 ([1]; time 36 s): -0.4381; time course of LyNa-VA1.2-induced ITPC2 ([1]; time 38 s): -0.4224; time course of LyNa-VA1.2-induced ITPC2 ([1]; time 40 s): -0.5193; time course of LyNa-VA1.2-induced ITPC2 ([1]; time 42 s): -0.5569; time course of LyNa-VA1.2-induced ITPC2 ([1]; time 44 s): -0.6324; time course of LyNa-VA1.2-induced ITPC2 ([1]; time 46 s): -0.7257; time course of LyNa-VA1.2-induced ITPC2 ([1]; time 48 s): -0.7464; time course of LyNa-VA1.2-induced ITPC2 ([1]; time 50 s): -0.8325; time course of LyNa-VA1.2-induced ITPC2 ([1]; time 52 s): -0.8418; time course of LyNa-VA1.2-induced ITPC2 ([1]; time 54 s): -0.8932; time course of LyNa-VA1.2-induced ITPC2 ([1]; time 56 s): -0.9277; time course of LyNa-VA1.2-induced ITPC2 ([1]; time 58 s): -0.9561; time course of LyNa-VA1.2-induced ITPC2 ([1]; time 60 s): -0.9666; time course of LyNa-VA1.2-induced ITPC2 ([1]; time 62 s): -0.9966; time course of LyNa-VA1.2-induced ITPC2 ([1]; time 64 s): -0.9748; time course of LyNa-VA1.2-induced ITPC2 ([1]; time 66 s): -1.0004; current density ([1]; 5 µM, individual recordings): 10.3471 pA/pF and 4.752 pA/pF and 3.368 pA/pF and 5.887 pA/pF; current density ([1]; 10 µM, individual recordings): 14.5785 pA/pF and 6.451 pA/pF and 2.849 pA/pF and 8.548 pA/pF; current density ([1]; 20 µM, individual recordings): 24.0331 pA/pF and 8.699 pA/pF and 7.085 pA/pF and 17.3826 pA/pF; current density ([1]; 50 µM, individual recordings): 89.8595 pA/pF and 25.0088 pA/pF and 25.4245 pA/pF and 76.3478 pA/pF; current density ([1]; 100 µM, individual recordings): 240.859 pA/pF and 94.6372 pA/pF and 96.3302 pA/pF and 256.8 pA/pF; current density ([1]; 200 µM, individual recordings): 297.455 pA/pF and 239.381 pA/pF and 181.434 pA/pF and 429.652 pA/pF; current density ([1]; 400 µM, individual recordings): 245.487 pA/pF and 193.066 pA/pF and 464.052 pA/pF; Latency of induced ITPC2 [1, 4]: 14 s and 12 s and 20 s; Time constant (τ) of induced ITPC2 [1, 4]: 55 s and 48 s and 30.1 s and 39.1 s; EC50 ([1]; whole-cell recordings at −140 mV, TPC2^LL/AA-transfected HEK293 cells, read-out: EC50): 87 ± 8 µM; latency of TPC2 activation [1, 5]: 15 ± 2 s; time constant (τ) of TPC2 activation [1, 5]: 43 ± 5 s
